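A five-concentration, 48-hour dose response in 96-well plates underlies each endpoint, interpolated linearly between surrounding concentrations. GI50 marks 50% less growth. Definition used: TGI = concentration required for complete inhibition of growth.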

7 compounds from PubChem BioAssay (NCI) can be followed below.

What all share (test): growth of human tumour cells (NCI), 48 h
Test [1] relates to A498 renal.
In test [2] the test system is HCC-2998 colon.
In test [3] the test system is HCT-116 colon.
Test [4] relates to KM12 colon.
In test [5] the test system is MALME-3M melanoma.
Test [6] concerns OVCAR-3 ovarian.
Test [7] concerns RPMI-8226 leukemia.
Test [8] relates to SN12C renal.
The test system of test [9] is SR leukemia.
In test [10] the test system is UO-31 renal.

Turning to `COc1ccc(/C=C(\C(=O)NCc2cccnc2)S(=O)(=O)c2ccccc2)cc1OC`, the GI50 in [1] is 2.78 µM; in [2], 3.91 µM; in [3], 2.11 µM; in test [4], 2.81 µM; in test [5], 3.06 µM; in test [6] it was 3.22 µM. Further, the GI50 in test [7] is 2.43 µM; in [8], 2.49 µM; in test [9], 3.3 µM; in test [10], 2.69 µM. The TGI in test [1] was determined as 8 µM; in [2], 15.1 µM; in [3], 6.12 µM; in test [4], 8.61 µM; in test [5] it was 11.9 µM; in test [6] it was 11.4 µM. Further, the TGI in test [7] was 6.78 µM; in test [8], 9.15 µM; in test [9], above 100 µM; in [10], 11.3 µM.

On to `CC(C)CCNCC(O)Cn1c2ccccc2c2ccccc21` (stereo not given), for which the GI50 is 9.52 µM in test [1]; 2.06 µM in test [2]; 9.47 µM in test [3]; 3.91 µM in test [4]; 7.17 µM in test [5]; 13.4 µM in test [6]. Besides, the GI50 in test [7] is 3.1 µM; in [8], 11.2 µM; in test [9] it was 2.45 µM; in test [10], 9.21 µM. Further, the TGI in [1] is 22.8 µM; in test [2], 4.22 µM; in test [3] it was 24.1 µM; in test [4] it was 14.4 µM; in test [5], 23 µM; in test [6] it was 26.8 µM. In addition, the TGI worked out at 11.2 µM in [7], 25.1 µM in test [8], 6.38 µM in [9] and 23.3 µM in test [10].

Take `COc1ccccc1CNCCCN1C(=O)c2ccc3c4c(ccc(c24)C1=O)C(=O)N(CCCN)C3=O`: the GI50 in test [1] is 1.57 µM; in [2], 1.8 µM; in [3] it was 0.349 µM; in test [4] it was 1.69 µM; in test [5], 0.36 µM; in [6] it was 0.329 µM. Moreover, the GI50 in [7] is 1.36 µM; in [8], 1.29 µM; in test [9], 0.243 µM; in test [10] it was 1.96 µM. In addition, the TGI came out at 3.04 µM in test [1]; 3.58 µM in test [2]; 1.23 µM in test [3]; 3.25 µM in [4]; 1.07 µM in test [5]; 1.06 µM in [6]. Also, the TGI in test [7] was determined as 4.52 µM; in [8] it was 2.76 µM; in test [9], 1.36 µM; in [10], 5.35 µM.

Turning to `COC(=O)c1cc2ccccc2c2c3c(ccc12)OCO3`, the GI50 in test [1] is 15.5 µM; in test [2] it was 562 µM; in test [3], 194 µM; in test [4] it was 515 µM; in test [5], 76.6 µM; in [6], 68.7 µM. Moreover, the GI50 in test [7] was 430 µM; in test [8], 205 µM; in test [9] it was 167 µM; in [10], 224 µM. Also, the TGI is 129 µM in [1]; above 1000 µM in [2]; above 1000 µM in [3]; above 1000 µM in test [4]; 483 µM in [5]; 700 µM in test [6]. The TGI in [7], in test [8], in test [9] and in test [10] was above 1000 µM throughout.

For the compound `O=[N+]([O-])c1ccc(N=Nc2ccc(O)c3ccccc23)cc1`, the GI50 in test [1] is 3.32 µM; in [2], 10.3 µM; in [3] it was 2.02 µM; in test [4], 3.21 µM; in test [5], 12 µM; in [6], 1.77 µM. For the same compound, the GI50 in test [7] was 1.59 µM; in [8], 3.55 µM; in test [9] it was 2.99 µM; in [10], 5.42 µM. The TGI in [1] is 86.8 µM; in test [2], above 100 µM; in [3], 13.8 µM; in test [4] it was above 100 µM; in test [5], 32.7 µM; in test [6], 6 µM. Also, the TGI in [7] is 6.55 µM; in [8], above 100 µM; in test [9], 23.4 µM; in test [10], above 100 µM.

With `Nc1ncnc2c1c(-c1ccc(Oc3ccccc3)cc1)nn2C[C@@H]1SSC[C@H]1O`, the GI50 in test [1] was 2.18 µM; in test [2], 4.34 µM; in [3] it was 0.364 µM; in test [4], 0.208 µM; in [5] it was 1.25 µM; in [6], 0.819 µM. Besides, the GI50 in test [7] was 5.58 µM; in test [8] it was 2.31 µM; in test [9], 0.163 µM; in [10], 1.07 µM. Also, the TGI was determined as 5.53 µM in test [1]; 23.5 µM in test [2]; 5.23 µM in test [3]; 16.7 µM in test [4]; 6.45 µM in test [5]; 9.76 µM in test [6]. For the same compound, the TGI in test [7] was determined as 31.8 µM; in test [8], 10.2 µM; in test [9], 11.8 µM; in test [10], 3.55 µM.

Take `COc1ccc(C2=C(c3ccc(OC)c(OC)c3)C(=O)N3CCCC3C2)cc1` (stereo not given): the GI50 is 34.1 µM in [1]; 53.6 µM in [2]; 9.64 µM in test [3]; 15.7 µM in [4]; above 71.4 µM in test [5]; 23.9 µM in test [6]. Moreover, the GI50 is 8.47 µM in test [7], 45.7 µM in [8], 3.02 µM in [9] and 22.8 µM in [10]. The TGI was above 100 µM in [1]; above 100 µM in [2]; above 100 µM in [3]; above 100 µM in test [4]; above 100 µM in test [5]; above 93.8 µM in test [6]. Further, the TGI was 62.6 µM in test [7], above 100 µM in test [8], 12.8 µM in [9] and above 100 µM in [10].
